# Experimental data published in BindingDB's records for doi:10.1021/jm00102a019 (Oregon State University, 1993).
# Target: Delta-type opioid receptor (Cavia porcellus)
# Experiment: Tested for inhibitory effect on binding of [3H]DPDPE to opioid receptor delta in guinea pig cerebellum membranes
row,Structure (SMILES),Ki
1,CC[C@H](C)[C@H](NC(=O)[C@H](CCCNC(=N)N)NC(=O)[C@H](CCCNC(=N)N)NC(=O)[C@H](CC(C)C)NC(=O)[C@H](Cc1ccccc1)NC(=O)CNC(=O)CNC(=O)[C@H](Cc1ccc(O)cc1)NCC1CC1)C(=O)N[C@@H](CCCNC(=N)N)C(=O)N1CCC[C@@H]1C(=O)N[C@@H](CCCCN)C(=O)O,558 nM
2,C=CCN(CC=C)[C@@H](Cc1ccc(O)cc1)C(=O)NCC(=O)NCC(=O)N[C@@H](Cc1ccccc1)C(=O)N[C@@H](CC(C)C)C(=O)N[C@@H](CCCNC(=N)N)C(=O)N[C@@H](CCCNC(=N)N)C(=O)N[C@H](C(=O)N[C@@H](CCCNC(=N)N)C(=O)N1CCC[C@@H]1C(=O)N[C@@H](CCCCN)C(=O)O)[C@@H](C)CC,149 nM
